Source: patent US8063099B2, “Trans-3-aza-bicyclo[3.1.0]hexane derivatives” (Actelion Pharmaceuticals Ltd., priority 2007, dated 2011)
Read-outs that look alike come from different tables or passages of the source.

Tests used:
human orexin-1 receptor = target: T1, human orexin-1 receptor (Homo sapiens, UniProt O43613); assay: Intracellular calcium measurements (FLIPR), orexin receptor antagonistic activity; format: cell-based; details: CHO cells expressing human orexin-1 receptor, 3 nM orexin-A, read-out: OX1 IC50
T1 construct: expressed in transfected cells; host or cells: Chinese hamster ovary (CHO) cells, G418 selection
T1 sequence (O43613 1-425): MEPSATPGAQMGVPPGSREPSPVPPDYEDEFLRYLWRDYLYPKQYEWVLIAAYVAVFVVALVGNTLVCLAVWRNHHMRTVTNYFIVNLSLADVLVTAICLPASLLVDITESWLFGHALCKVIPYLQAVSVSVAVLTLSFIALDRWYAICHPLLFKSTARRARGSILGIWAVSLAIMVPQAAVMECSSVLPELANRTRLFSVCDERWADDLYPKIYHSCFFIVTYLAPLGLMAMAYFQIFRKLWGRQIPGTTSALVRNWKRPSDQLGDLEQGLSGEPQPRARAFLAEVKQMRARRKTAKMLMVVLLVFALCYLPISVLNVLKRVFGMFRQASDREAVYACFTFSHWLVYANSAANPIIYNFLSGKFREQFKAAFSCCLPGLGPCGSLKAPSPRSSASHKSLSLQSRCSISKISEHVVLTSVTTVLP
Experimental: (§1) The orexin receptor antagonistic activity of the compounds of formula (I) is determined in accordance with one of the following experimental methods.
(§2) Intracellular Calcium Measurements:
(§3) Chinese hamster ovary (CHO) cells expressing the human orexin-1 receptor and the human orexin-2 receptor, respectively, are grown in culture medium (Ham F-12 with L-Glutamine) containing 300 μg/ml G418, 100 U/ml penicillin, 100 μg/ml streptomycin and 10% heat inactivated fetal calf serum (FCS). The cells are seeded at 20'000 cells/well into 384-well black clear bottom sterile plates (Greiner). The seeded plates are incubated overnight at 37° C. in 5% CO2.
(§4) Human orexin-A as an agonist is prepared as 1 mM stock solution in MeOH:water (1:1), diluted in HBSS containing 0.1% bovine serum albumin (BSA), NaHCO3:0.375 g/l and 20 mM HEPES for use in the assay at a final concentration of 3 nM.
(§5) Antagonists are prepared as 10 mM stock solution in DMSO, then diluted in 384-well plates, first in DMSO, then in HBSS containing 0.1% bovine serum albumin (BSA), NaHCO3: 0.375 g/l and 20 mM HEPES.
(§6) On the day of the assay, 50 μl of staining buffer (HBSS containing 1% FCS, 20 mM HEPES, NaHCO3: 0.375 g/l, 5 mM probenecid (Sigma) and 3 μM of the fluorescent calcium indicator fluo-4 AM (1 mM stock solution in DMSO, containing 10% pluronic) is added to each well.
(§7) The 384-well cell-plates are incubated for 50 min at 37° C. in 5% CO2 followed by equilibration at RT for 30-120 min before measurement.
(§8) Within the Fluorescent Imaging Plate Reader (FLIPR2 or FLIPR Tetra, Molecular Devices), antagonists are added to the plate in a volume of 10 μl/well, incubated for 10 min and finally 10 μl/well of agonist is added. Fluorescence is measured for each well at 1 second intervals, and the height of each fluorescence peak is compared to the height of the fluorescence peak induced by 3 nM orexin-A with vehicle in place of antagonist. For each antagonist, the IC50 value (the concentration of compound needed to inhibit 50% of the agonistic response) is determined. With the FLIPR Tetra, non-optimized and optimized conditions were used. Optimized conditions were achieved by adjustment of pipetting speed and cell splitting regime. The calculated IC50 values of the compounds may fluctuate depending on the daily cellular assay performance. Fluctuations of this kind are known to those skilled in the art.

human orexin-2 receptor = target: T2, human orexin-2 receptor (Homo sapiens, UniProt O43614); assay: as above; format: cell-based; details: CHO cells expressing human orexin-2 receptor, 3 nM orexin-A, read-out: OX2 IC50
T2 construct: expressed in transfected cells; host or cells: Chinese hamster ovary (CHO) cells, G418 selection
T2 sequence (O43614 1-444): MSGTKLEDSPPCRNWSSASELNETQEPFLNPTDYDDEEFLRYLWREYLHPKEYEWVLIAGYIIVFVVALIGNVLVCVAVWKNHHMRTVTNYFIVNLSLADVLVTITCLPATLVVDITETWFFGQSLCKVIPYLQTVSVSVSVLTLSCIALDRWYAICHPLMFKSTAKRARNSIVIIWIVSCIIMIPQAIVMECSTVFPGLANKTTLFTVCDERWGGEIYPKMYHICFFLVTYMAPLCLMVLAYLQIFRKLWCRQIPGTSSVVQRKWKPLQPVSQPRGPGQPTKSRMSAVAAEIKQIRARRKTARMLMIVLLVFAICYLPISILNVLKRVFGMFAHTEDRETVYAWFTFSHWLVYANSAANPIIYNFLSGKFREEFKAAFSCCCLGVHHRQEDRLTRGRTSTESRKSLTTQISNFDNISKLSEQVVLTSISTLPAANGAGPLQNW
Experimental: as §1, §2, §3, §4, §5, §6, §7, §8

[1] = FLIPR Tetra, non-optimized conditions
[2] = FLIPR Tetra, optimized conditions

SMILES	IC50 (human orexin-1 receptor; FLIPR2) [nM]	IC50 (human orexin-2 receptor; FLIPR2) [nM]	other results
CCn1nc(C)cc1C(=O)NC[C@@H]1[C@H]2C[C@H]2CN1C(=O)c1nc(C)sc1-c1cccc(Cl)c1 [Example 80, 2-Ethyl-5-methyl-2H-pyrazole-3-carboxylic Acid{(1S,2S,5R)-3-[5-(3-chloro-phenyl)-2-methyl-thiazole-4-carbonyl]-3-aza-bicyclo[3.1.0]hex-2-ylmethyl}-amide]	29	10	
Nc1nc(C(=O)N2C[C@@H]3C[C@@H]3[C@H]2CNC(=O)c2nccc3ccccc23)c(-c2cccc(F)c2)s1 [Example 112, Isoquinoline-1-carboxylic Acid{(1S,2S,5R)-3-[2-amino-5-(3-fluoro-phenyl)-thiazole-4-carbonyl]-3-aza-bicyclo[3.1.0]hex-2-ylmethyl}-amide]	115	12	
Cn1cc(C(=O)NC[C@@H]2[C@H]3C[C@H]3CN2C(=O)c2nc(N)sc2-c2cccc(F)c2)c2ccccc21 [Example 115, 1-Methyl-1H-indole-3-carboxylic Acid{(1S,2S,5R)-3-[2-amino-5-(3-fluoro-phenyl)-thiazole-4-carbonyl]-3-aza-bicyclo[3.1.0]hex-2-ylmethyl}-amide]	178	48	
Cn1nc(C(=O)NC[C@@H]2[C@H]3C[C@H]3CN2C(=O)c2nc(N)sc2-c2cccc(F)c2)c2ccccc21 [Example 117, 1-Methyl-1H-indazole-3-carboxylic Acid{(1S,2S,5R)-3-[2-amino-5-(3-fluoro-phenyl)-thiazole-4-carbonyl]-3-aza-bicyclo[3.1.0]hex-2-ylmethyl}-amide]	80	8	
Nc1nc(C(=O)N2C[C@@H]3C[C@@H]3[C@H]2CNC(=O)c2cnc3ccccn23)c(-c2cccc(F)c2)s1 [Example 118, Imidazo[1,2-a]pyridine-3-carboxylic Acid{(1S,2S,5R)-3-[2-amino-5-(3-fluoro-phenyl)-thiazole-4-carbonyl]-3-aza-bicyclo[3.1.0]hex-2-ylmethyl}-amide]	225	41	
Cc1c(C(=O)NC[C@@H]2[C@H]3C[C@H]3CN2C(=O)c2nc(N)sc2-c2cccc(F)c2)sc2nccn12 [Example 124, 3-Methyl-imidazo[2,1-b]thiazole-2-carboxylic Acid{(1S,2S,5R)-3-[2-amino-5-(3-fluoro-phenyl)-thiazole-4-carbonyl]-3-aza-bicyclo[3.1.0]hex-2-ylmethyl}-amide]	7030	12	
Cc1cc(C)cc(C(=O)NC[C@@H]2[C@H]3C[C@H]3CN2C(=O)c2nc(C)sc2-c2cccc(C)c2)c1 [Example 147, 3,5-Dimethyl-N-[(1S,2S,5R)-3-(2-methyl-5-m-tolyl-thiazole-4-carbonyl)-3-aza-bicyclo[3.1.0]hex-2-ylmethyl]-benzamide]	324	26	
N#Cc1ccc(-c2sc(C3CC3)nc2C(=O)N2C[C@@H]3C[C@@H]3[C@H]2CNC(=O)c2cccc(Cl)c2)cc1 [Example 186, 3-Chloro-N-{(1S,2S,5R)-3-[5-(4-cyano-phenyl)-2-cyclopropyl-thiazole-4-carbonyl]-3-aza-bicyclo[3.1.0]hex-2-ylmethyl}-benzamide]			IC50 (human orexin-1 receptor; [1]): 3260 nM; IC50 (human orexin-2 receptor; [1]): 296 nM
Cc1nc(C(=O)N2C[C@@H]3C[C@@H]3[C@H]2CNC(=O)c2cccc3c2CCO3)c(-c2cccc(C(F)(F)F)c2)s1 [Example 201, 2,3-Dihydro-benzofuran-4-carboxylic acid {(1S,2S,5R)-3-[2-methyl-5-(3-trifluoromethyl-phenyl)-thiazole-4-carbonyl]-3-aza-bicyclo[3.1.0]hex-2-ylmethyl}-amide]			IC50 (human orexin-1 receptor; [1]): 673 nM; IC50 (human orexin-2 receptor; [1]): 349 nM
CN(C)c1nc(C(=O)N2C[C@@H]3C[C@@H]3[C@H]2CNC(=O)c2scc3c2OCCO3)c(-c2cccc(F)c2)s1 [Example 220, 2,3-Dihydro-thieno[3,4-b][1,4]dioxine-5-carboxylic acid {(1S,2S,5R)-3-[2-dimethylamino-5-(3-fluoro-phenyl)-thiazole-4-carbonyl]-3-aza-bicyclo[3.1.0]hex-2-ylmethyl}-amide]			IC50 (human orexin-1 receptor; [1]): 115 nM; IC50 (human orexin-2 receptor; [1]): 48 nM
Cc1ccc(-c2ccsc2C(=O)N2C[C@@H]3C[C@@H]3[C@H]2CNC(=O)c2c(C)nc3sccn23)cc1 [Example 222, 6-Methyl-imidazo[2,1-b]thiazole-5-carboxylic acid [(1S,2S,5R)-3-(3-p-tolyl-thiophene-2-carbonyl)-3-aza-bicyclo[3.1.0]hex-2-ylmethyl]-amide]			IC50 (human orexin-1 receptor; [2]): 96 nM; IC50 (human orexin-2 receptor; [2]): 79 nM
CCn1nc(C)cc1C(=O)NC[C@@H]1[C@H]2C[C@H]2CN1C(=O)c1nc(C2CC2)sc1-c1cccc(C)c1 [Example 237, 2-Ethyl-5-methyl-2H-pyrazole-3-carboxylic acid [(1S,2S,5R)-3-(2-cyclopropyl-5-m-tolyl-thiazole-4-carbonyl)-3-aza-bicyclo[3.1.0]hex-2-ylmethyl]-amide]			IC50 (human orexin-1 receptor; [2]): 29 nM; IC50 (human orexin-2 receptor; [2]): 38 nM
Cc1cccc(-c2sc(C)nc2C(=O)N2C[C@@H]3C[C@@H]3[C@H]2CNc2ncc(Br)cn2)c1 [Example 244, {(1S,2S,5R)-2-[(5-Bromo-pyrimidin-2-ylamino)-methyl]-3-aza-bicyclo[3.1.0]hex-3-yl}-(2-methyl-5-m-tolyl-thiazol-4-yl)-methanone]			IC50 (human orexin-1 receptor; [1]): 51 nM; IC50 (human orexin-2 receptor; [1]): 639 nM

Now from value to molecule, other results behind:

IC50 (human orexin-1 receptor; FLIPR2) [nM]	IC50 (human orexin-2 receptor; FLIPR2) [nM]	SMILES	other results
1080	102	Cc1cccc(-c2sc(C)nc2C(=O)N2C[C@@H]3C[C@@H]3[C@H]2CNC(=O)c2cc(Br)ccc2Cl)c1 [Example 148, 5-Bromo-2-chloro-N-[(1S,2S,5R)-3-(2-methyl-5-m-tolyl-thiazole-4-carbonyl)-3-aza-bicyclo[3.1.0]hex-2-ylmethyl]-benzamide]	
> 10000	61	Cc1cccc(-c2sc(C)nc2C(=O)N2C[C@@H]3C[C@@H]3[C@H]2CNC(=O)c2cccc3c2OCC(=O)N3)c1 [Example 169, 3-Oxo-3,4-dihydro-2H-benzo[1,4]oxazine-8-carboxylic Acid[(1S,2S,5R)-3-(2-methyl-5-m-tolyl-thiazole-4-carbonyl)-3-aza-bicyclo[3.1.0]hex-2-ylmethyl]-amide]	
691	88	Cc1cccc(-c2sc(C)nc2C(=O)N2C[C@@H]3C[C@@H]3[C@H]2CNC(=O)c2cccc3c2N(C)CCO3)c1 [Example 177, 4-Methyl-3,4-dihydro-2H-benzo[1,4]oxazine-5-carboxylic Acid[(1S,2S,5R)-3-(2-methyl-5-m-tolyl-thiazole-4-carbonyl)-3-aza-bicyclo[3.1.0]hex-2-ylmethyl]-amide]	
